# Measured values from publication PMC5218480 (PLoS ONE, 2017).
# Tested on: MV-4-11 cells
# Experiment: Gene expression microarray analysis (Affymetrix PrimeView) and GSEA
# Format: cell-based, human
# Set-up: RFU PODN (11730768_x_at) / Fold change /veh PODN (11730768_x_at) / RFU LINC00158 (11744669_a_at) / Fold change /veh LINC00158 (11744669_a_at) / RFU DUSP10 (11751237_a_at) / Fold change /veh DUSP10 (11751237_a_at) / RFU ID3 (11757404_x_at) / Fold change /veh ID3 (11757404_x_at) / RFU PLEKHG5 (11737974_s_at) / Fold change /veh PLEKHG5 (11737974_s_at) / RFU LRRC4B (11730491_at) / Fold change /veh LRRC4B (11730491_at) / RFU GIMAP4 (11747438_a_at) / Fold change /veh GIMAP4 (11747438_a_at) / RFU KRT8 (11758183_x_at) / Fold change /veh KRT8 (11758183_x_at) / RFU CNN1 (11734310_a_at) / Fold change /veh CNN1 (11734310_a_at) / RFU VPS37D (11726825_at) / Fold change /veh VPS37D (11726825_at) / RFU C10orf10 (11716522_x_at) / Fold change /veh C10orf10 (11716522_x_at) / RFU KIR2DL2 /// KIR2DL4 /// KIR2DL5A /// KIR2DL5B /// KIR2DS1 /// KIR2DS2 /// KIR2DS3 /// KIR2DS4 /// KIR3DL3 /// KIR3DL3 /// KIR3DS1 (11738374_at) / Fold change /veh KIR2DL2 /// KIR2DL4 /// KIR2DL5A /// KIR2DL5B /// KIR2DS1 /// KIR2DS2 /// KIR2DS3 /// KIR2DS4 /// KIR3DL3 /// KIR3DL3 /// KIR3DS1 (11738374_at) / RFU C1QL1 (11718748_at) / Fold change /veh C1QL1 (11718748_at) / RFU TMPRSS4 (11747572_a_at) / Fold change /veh TMPRSS4 (11747572_a_at) / RFU HAMP (11756126_x_at) / Fold change /veh HAMP (11756126_x_at) / RFU RNFT2 (11725882_a_at) / Fold change /veh RNFT2 (11725882_a_at) / RFU NR4A2 (11747474_a_at) / Fold change /veh NR4A2 (11747474_a_at) / RFU ABCC12 (11746883_a_at) / Fold change /veh ABCC12 (11746883_a_at) / RFU TMEM136 (11760407_x_at) / Fold change /veh TMEM136 (11760407_x_at) / RFU CLDN22 /// WWC2 (11732394_at) / Fold change /veh CLDN22 /// WWC2 (11732394_at) / RFU HLA-DPB1 (11760878_x_at) / Fold change /veh HLA-DPB1 (11760878_x_at) / RFU SPINT1 (11716480_a_at) / Fold change /veh SPINT1 (11716480_a_at) / RFU GAP43 (11754022_s_at) / Fold change /veh GAP43 (11754022_s_at) / RFU A4GNT (11735810_at) / Fold change /veh A4GNT (11735810_at) / RFU PRB3 (11715151_x_at) / Fold change /veh PRB3 (11715151_x_at) / RFU TUBB4B (11761932_at) / Fold change /veh TUBB4B (11761932_at) / RFU CAPN14 (11732068_a_at) / Fold change /veh CAPN14 (11732068_a_at) / RFU TMCC2 (11721928_a_at) / Fold change /veh TMCC2 (11721928_a_at) / RFU IRGQ (11745062_a_at) / Fold change /veh IRGQ (11745062_a_at) / RFU FAM174B (11720279_a_at) / Fold change /veh FAM174B (11720279_a_at) / RFU TMPRSS4 (11748680_a_at) / Fold change /veh TMPRSS4 (11748680_a_at) / RFU FAM212B (11763350_a_at) / Fold change /veh FAM212B (11763350_a_at) / RFU PLEKHG5 (11743358_a_at) / Fold change /veh PLEKHG5 (11743358_a_at) / RFU ZSCAN30 (11745921_a_at) / Fold change /veh ZSCAN30 (11745921_a_at) / RFU CMKLR1 (11741424_a_at) / Fold change /veh CMKLR1 (11741424_a_at) / RFU LOC101060620 /// MAPK8IP1 (11723275_at) / Fold change /veh LOC101060620 /// MAPK8IP1 (11723275_at) / RFU SPTSSB (11747773_x_at) / Fold change /veh SPTSSB (11747773_x_at) / RFU PRSS12 (11739890_at) / Fold change /veh PRSS12 (11739890_at) / RFU BIN1 (11741810_x_at) / Fold change /veh BIN1 (11741810_x_at) / RFU WNT11 (11732464_a_at) / Fold change /veh WNT11 (11732464_a_at) / RFU C10orf10 (11716521_a_at) / Fold change /veh C10orf10 (11716521_a_at) / RFU C5orf56 (11738089_at) / Fold change /veh C5orf56 (11738089_at) / RFU CYB561 (11721691_x_at) / Fold change /veh CYB561 (11721691_x_at) / RFU ANKRD19P (11752326_a_at) / Fold change /veh ANKRD19P (11752326_a_at) / RFU OR2T12 /// OR2T33 /// OR2T8 (11738714_s_at) / Fold change /veh OR2T12 /// OR2T33 /// OR2T8 (11738714_s_at) / RFU VCAN (11748164_a_at) / Fold change /veh VCAN (11748164_a_at) / RFU JSRP1 (11732532_at) / Fold change /veh JSRP1 (11732532_at) / RFU KRTAP10-11 (11738290_x_at) / Fold change /veh KRTAP10-11 (11738290_x_at) / RFU MYO3A (11730013_a_at) / Fold change /veh MYO3A (11730013_a_at) / RFU EBF3 (11725865_a_at) / Fold change /veh EBF3 (11725865_a_at) / RFU CAMK2N1 (11719241_x_at) / Fold change /veh CAMK2N1 (11719241_x_at) / RFU C5orf56 (11738088_a_at) / Fold change /veh C5orf56 (11738088_a_at) / RFU OLFML3 (11715873_a_at) / Fold change /veh OLFML3 (11715873_a_at) / RFU LOC100653217 /// NTM (11731650_a_at) / Fold change /veh LOC100653217 /// NTM (11731650_a_at) / RFU MAPK11 (11762145_a_at) / Fold change /veh MAPK11 (11762145_a_at) / RFU FIZ1 (11724087_x_at) / Fold change /veh FIZ1 (11724087_x_at) / RFU OASL (11726364_x_at) / Fold change /veh OASL (11726364_x_at) / RFU SOX15 (11748057_x_at) / Fold change /veh SOX15 (11748057_x_at) / RFU CD79A (11719716_a_at) / Fold change /veh CD79A (11719716_a_at) / RFU HIST1H1D (11736915_at) / Fold change /veh HIST1H1D (11736915_at) / RFU CASKIN2 (11723855_a_at) / Fold change /veh CASKIN2 (11723855_a_at) / RFU LOC730098 (11760151_x_at) / Fold change /veh LOC730098 (11760151_x_at) / RFU OR4N2 (11742367_at) / Fold change /veh OR4N2 (11742367_at) / RFU PRRT2 (11749266_a_at) / Fold change /veh PRRT2 (11749266_a_at) / RFU SNX32 (11753110_a_at) / Fold change /veh SNX32 (11753110_a_at) / RFU CDHR5 (11726645_a_at) / Fold change /veh CDHR5 (11726645_a_at) / RFU RCAN1 (11760418_a_at) / Fold change /veh RCAN1 (11760418_a_at) / RFU FAM167A (11723789_a_at) / Fold change /veh FAM167A (11723789_a_at) / RFU FAM26E (11764081_at) / Fold change /veh FAM26E (11764081_at) / RFU ISYNA1 (11749810_s_at) / Fold change /veh ISYNA1 (11749810_s_at) / RFU ACY1 (11761880_at) / Fold change /veh ACY1 (11761880_at) / RFU 11764098_at / Fold change /veh 11764098_at / RFU SAMD14 (11745864_x_at) / Fold change /veh SAMD14 (11745864_x_at) / RFU NPB (11741838_a_at) / Fold change /veh NPB (11741838_a_at) / RFU TMPRSS6 (11731388_a_at) / Fold change /veh TMPRSS6 (11731388_a_at) / RFU KRTAP10-2 (11738614_at) / Fold change /veh KRTAP10-2 (11738614_at) / RFU ARHGAP8 /// PRR5-ARHGAP8 (11727945_x_at) / Fold change /veh ARHGAP8 /// PRR5-ARHGAP8 (11727945_x_at) / RFU KRTAP5-7 /// NADSYN1 (11734609_at) / Fold change /veh KRTAP5-7 /// NADSYN1 (11734609_at) / RFU RASL12 (11751679_a_at) / Fold change /veh RASL12 (11751679_a_at) / RFU CDKN2B (11736163_a_at) / Fold change /veh CDKN2B (11736163_a_at) / RFU PRF1 (11729649_at) / Fold change /veh PRF1 (11729649_at) / RFU, ZNF638 /// ZNF638-IT1 / Fold change vs veh, ZNF638 /// ZNF638-IT1 / RFU, PANK3 / Fold change vs veh, PANK3 / RFU, SH3YL1 / Fold change vs veh, SH3YL1 / RFU, ZEB2 / Fold change vs veh, ZEB2 / RFU, NRIP1 / Fold change vs veh, NRIP1 / RFU, PTTG1IP / Fold change vs veh, PTTG1IP / RFU, CAPN2 / Fold change vs veh, CAPN2 / RFU, MED14 / Fold change vs veh, MED14 / RFU, SNORA58 / Fold change vs veh, SNORA58 / RFU, C1orf63 / Fold change vs veh, C1orf63 / RFU, LRRFIP1 / Fold change vs veh, LRRFIP1 / RFU, NDUFAF7 / Fold change vs veh, NDUFAF7 / RFU, SLC12A2 / Fold change vs veh, SLC12A2 / RFU, IBTK / Fold change vs veh, IBTK / RFU, ESF1 / Fold change vs veh, ESF1 / Fold change vs veh, TMEM50B / RFU, TAOK1 / Fold change vs veh, TAOK1 / RFU, ACBD3 / Fold change vs veh, ACBD3 / RFU, TMA16 / Fold change vs veh, TMA16 / RFU, RWDD3 / Fold change vs veh, RWDD3 / RFU, BCAT1 / Fold change vs veh, BCAT1 / RFU, EDEM3 / Fold change vs veh, EDEM3 / RFU, TMEM33 / Fold change vs veh, TMEM33 / RFU, WDR75 / Fold change vs veh, WDR75 / RFU, AHCTF1 / Fold change vs veh, AHCTF1 / RFU, TFRC / Fold change vs veh, TFRC / RFU, ZDHHC17 / Fold change vs veh, ZDHHC17 / RFU, NOM1 / Fold change vs veh, NOM1 / RFU, ARL8B / Fold change vs veh, ARL8B / RFU, ZBTB11 / Fold change vs veh, ZBTB11 / RFU, TAMM41 / Fold change vs veh, TAMM41 / RFU, KIAA1704 /// LOC100996395 / Fold change vs veh, KIAA1704 /// LOC100996395 / RFU, ING1 / Fold change vs veh, ING1 / RFU, TRMT61B / Fold change vs veh, TRMT61B / RFU, FUBP3 / Fold change vs veh, FUBP3 / RFU, TP53 / Fold change vs veh, TP53 / RFU, TNKS2 / Fold change vs veh, TNKS2 / RFU, ZFP14 / Fold change vs veh, ZFP14 / RFU, ACTR2 / Fold change vs veh, ACTR2 / RFU, PPP3R1 / Fold change vs veh, PPP3R1 / RFU, PIK3R1 / Fold change vs veh, PIK3R1 / RFU, HNRNPA1 / Fold change vs veh, HNRNPA1 / RFU, RNF170 / Fold change vs veh, RNF170 / RFU, ZNF28 / Fold change vs veh, ZNF28 / RFU, RNGTT / Fold change vs veh, RNGTT / RFU, OGT / Fold change vs veh, OGT / RFU, BRD1 / Fold change vs veh, BRD1 / RFU, MARS / Fold change vs veh, MARS / RFU, ZNF655 / Fold change vs veh, ZNF655 / RFU, FAHD1 / Fold change vs veh, FAHD1 / RFU, BDP1 / Fold change vs veh, BDP1 / RFU, LRRCC1 / Fold change vs veh, LRRCC1 / RFU, ARID1A / Fold change vs veh, ARID1A / RFU, ZNF146 / Fold change vs veh, ZNF146 / RFU, ZNF330 / Fold change vs veh, ZNF330 / RFU, GPN3 / Fold change vs veh, GPN3 / RFU, C9orf123 / Fold change vs veh, C9orf123 / RFU, N4BP2L2 / Fold change vs veh, N4BP2L2 / RFU, ARFIP1 / Fold change vs veh, ARFIP1 / RFU, FAM179B / Fold change vs veh, FAM179B / RFU, BCL10 / Fold change vs veh, BCL10 / RFU, UHRF1BP1L / Fold change vs veh, UHRF1BP1L / RFU, BET1 / Fold change vs veh, BET1 / RFU, CNOT2 / Fold change vs veh, CNOT2 / RFU, ZNF268 / Fold change vs veh, ZNF268 / Fold change vs veh, ZNF507 / RFU, DGCR2 / Fold change vs veh, DGCR2 / RFU, WDSUB1 / Fold change vs veh, WDSUB1 / Fold change vs veh, HSP90B1 /// MIR3652 / RFU, ADSS / Fold change vs veh, ADSS / RFU, GK / Fold change vs veh, GK / RFU, ZNF148 / Fold change vs veh, ZNF148 / RFU, TAF9 / Fold change vs veh, TAF9 / RFU, SLC1A5 / Fold change vs veh, SLC1A5 / RFU, SLMO2 / Fold change vs veh, SLMO2 / RFU, ABCC4 / Fold change vs veh, ABCC4 / RFU, LOC101060439 /// RAP1B / Fold change vs veh, LOC101060439 /// RAP1B / RFU, RFX7 / Fold change vs veh, RFX7 / RFU, GTPBP10 / Fold change vs veh, GTPBP10 / RFU, CNEP1R1 / Fold change vs veh, CNEP1R1 / RFU, BIVM-ERCC5 /// ERCC5 / Fold change vs veh, BIVM-ERCC5 /// ERCC5 / RFU, ILF3 / Fold change vs veh, ILF3 / RFU 11762660_at / Fold change /veh 11762660_at / RFU VCAN (11757783_s_at) / Fold change /veh VCAN (11757783_s_at) / RFU DDX43 (11728927_at) / Fold change /veh DDX43 (11728927_at) / RFU KRT8 (11758188_x_at) / Fold change /veh KRT8 (11758188_x_at) / RFU NKD1 (11759106_at) / Fold change /veh NKD1 (11759106_at) / RFU SRD5A1 (11742802_a_at) / Fold change /veh SRD5A1 (11742802_a_at) / RFU TPSAB1 /// TPSB2 (11721975_s_at) / Fold change /veh TPSAB1 /// TPSB2 (11721975_s_at) / RFU GSTM3 (11746129_a_at) / Fold change /veh GSTM3 (11746129_a_at) / RFU IL23R (11737362_x_at) / Fold change /veh IL23R (11737362_x_at) / RFU TMEM51 (11727254_a_at) / Fold change /veh TMEM51 (11727254_a_at) / RFU PIWIL2 (11732686_x_at) / Fold change /veh PIWIL2 (11732686_x_at) / RFU ORM1 (11744905_x_at) / Fold change /veh ORM1 (11744905_x_at) / RFU CCDC152 (11743942_at) / Fold change /veh CCDC152 (11743942_at) / RFU ECM1 (11717891_a_at) / Fold change /veh ECM1 (11717891_a_at) / RFU IL23R (11748794_a_at) / Fold change /veh IL23R (11748794_a_at) / RFU TNFAIP8L3 (11732012_x_at) / Fold change /veh TNFAIP8L3 (11732012_x_at) / RFU MBOAT4 (11741988_at) / Fold change /veh MBOAT4 (11741988_at) / RFU 11764193_at / Fold change /veh 11764193_at / RFU TMEM53 (11763286_at) / Fold change /veh TMEM53 (11763286_at) / RFU MAGEB2 (11727129_at) / Fold change /veh MAGEB2 (11727129_at) / RFU TMEM200A (11744735_a_at) / Fold change /veh TMEM200A (11744735_a_at) / RFU CCDC152 (11751479_a_at) / Fold change /veh CCDC152 (11751479_a_at) / RFU FAM211A (11726209_a_at) / Fold change /veh FAM211A (11726209_a_at) / RFU RGS16 (11746705_a_at) / Fold change /veh RGS16 (11746705_a_at) / RFU VCAN (11755009_s_at) / Fold change /veh VCAN (11755009_s_at) / RFU RHOB (11743442_s_at) / Fold change /veh RHOB (11743442_s_at) / RFU RGS16 (11720943_a_at) / Fold change /veh RGS16 (11720943_a_at) / RFU RGS16 (11720944_at) / Fold change /veh RGS16 (11720944_at) / RFU, VPS4B / Fold change vs veh, VPS4B / RFU, CREB1 / Fold change vs veh, CREB1 / RFU, DNAJC13 / Fold change vs veh, DNAJC13 / RFU, GNAQ / Fold change vs veh, GNAQ / RFU, CDK5R1 / Fold change vs veh, CDK5R1 / RFU, ZRANB3 / Fold change vs veh, ZRANB3 / RFU, CUL4A / Fold change vs veh, CUL4A / RFU, CCNY / Fold change vs veh, CCNY / RFU, UFL1 / Fold change vs veh, UFL1 / RFU, COG3 / Fold change vs veh, COG3 / RFU, DIAPH2 / Fold change vs veh, DIAPH2 / RFU, SKA2 / Fold change vs veh, SKA2 / RFU, AFF3 / Fold change vs veh, AFF3 / RFU, LMF1 / Fold change vs veh, LMF1 / RFU, IPO11 / Fold change vs veh, IPO11 / RFU, DFFB / Fold change vs veh, DFFB / RFU, FOXP1 / Fold change vs veh, FOXP1 / RFU, CARD8 / Fold change vs veh, CARD8 / RFU, STRN3 / Fold change vs veh, STRN3 / RFU, ADK / Fold change vs veh, ADK / RFU, RASSF2 / Fold change vs veh, RASSF2 / RFU, WIPF1 / Fold change vs veh, WIPF1 / RFU, LARP1B / Fold change vs veh, LARP1B / RFU, RASA1 / Fold change vs veh, RASA1 / RFU, RB1 / Fold change vs veh, RB1 / RFU, PPFIA1 / Fold change vs veh, PPFIA1 / RFU, MAT2A / Fold change vs veh, MAT2A / RFU, CCT5 / Fold change vs veh, CCT5 / RFU, WDR92 / Fold change vs veh, WDR92 / RFU, CUX1 / Fold change vs veh, CUX1 / RFU, TTC7A / Fold change vs veh, TTC7A / RFU, TMEM135 / Fold change vs veh, TMEM135 / RFU, DEPTOR / Fold change vs veh, DEPTOR / RFU, CPM / Fold change vs veh, CPM / RFU, DNAJB6 / Fold change vs veh, DNAJB6 / RFU, CACNA2D3 / Fold change vs veh, CACNA2D3 / RFU, DTX4 / Fold change vs veh, DTX4 / RFU, TFCP2 / Fold change vs veh, TFCP2 / RFU, GMCL1 /// GMCL1P1 / Fold change vs veh, GMCL1 /// GMCL1P1 / RFU, AEBP2 / Fold change vs veh, AEBP2 / RFU, SNHG1 /// SNORD22 /// SNORD25 /// SNORD26 /// SNORD27 /// SNORD28 /// SNORD29 /// SNORD31 / Fold change vs veh, SNHG1 /// SNORD22 /// SNORD25 /// SNORD26 /// SNORD27 /// SNORD28 /// SNORD29 /// SNORD31 / Fold change (Aza/veh), C12orf56 (ProbeSet 11735607_a_at) / Fold change (ACY-1035/veh), C12orf56 (ProbeSet 11735607_a_at) / Fold change (Aza/veh), FGFR1OP (ProbeSet 11751329_s_at) / Fold change (ACY-1035/veh), FGFR1OP (ProbeSet 11751329_s_at) / Fold change (Aza/veh), VPS36 (ProbeSet 11739960_a_at) / Fold change (ACY-1035/veh), VPS36 (ProbeSet 11739960_a_at) / RFU SYPL1 (11715823_x_at) / Fold change /veh SYPL1 (11715823_x_at) / RFU IGFBP7 (11715501_s_at) / Fold change /veh IGFBP7 (11715501_s_at) / RFU REEP3 (11722064_at) / Fold change /veh REEP3 (11722064_at) / RFU IGLL1 (11728026_x_at) / Fold change /veh IGLL1 (11728026_x_at): dose or concentration left out as unconfirmed
# Settings: ProbeSet 11740011_at; LIST B
smiles,measurement,value
Nc1ncn([C@@H]2O[C@H](CO)[C@@H](O)[C@H]2O)c(=O)n1 [azacitidine],"Fold change vs veh, ZFP14",0.92
